Test results reported in US20240148821A1, “PHARMACEUTICAL USE OF CYCLIC PEPTIDE COMPOUND” (CHUGAI SEIYAKU KABUSHIKI KAISHA, priority 2021, published 2024).
pIC50: −log10 of the molar value. Numbered stars: 1 amine (or outer) side, 2 acyl side, 3 side chain; on linkers, the order of the positions; unused ones are H or OH. Bridge positions count the residues as written; N and C are the ends. Square brackets hold non-standard residues; d marks the D form. Peptide text beside a SMILES is read from it. * marks the point of attachment. hPhe(3,5-F2-4-CF3) = N[C@@H](CCc1cc(F)c(C(F)(F)F)c(F)c1)C(=O)O; hPhe(3-Cl-4-CF3) = N[C@@H](CCc1ccc(C(F)(F)F)c(Cl)c1)C(=O)O; hPhe(3-F,4-CF3) = N[C@@H](CCc1ccc(C(F)(F)F)c(F)c1)C(=O)O; X19 = O=C([C@@H]1C[C@@H](N2CCC(F)(F)CC2)CN1[*:1])[*:2]; NMePhe(4-CF3) = CN[C@@H](Cc1ccc(C(F)(F)F)cc1)C(=O)O; X22 = O=C([C@H](CCc1ccc(C(F)F)nc1)N[*:1])[*:2]; NMePhe(4-Cl) = CN[C@@H](Cc1ccc(Cl)cc1)C(=O)O; NMePhe(4-Me) = CN[C@@H](Cc1ccc(C)cc1)C(=O)O; NMedβ3hAla = C[C@H](CC(=O)[*:2])N(C)[*:1]; NMeGly(cPent) = CN[C@H](C(=O)O)C1CCCC1; NMeCha = CN[C@@H](CC1CCCCC1)C(=O)O; Hyp = O=C(O)[C@@H]1C[C@@H](O)CN1; NEtLeu = CCN[C@@H](CC(C)C)C(=O)O; NMeAhp(2) = CCCCC[C@H](NC)C(=O)O; NMeChg = CN[C@H](C(=O)O)C1CCCCC1; NMeI = CC[C@H](C)[C@H](NC)C(=O)O; NMeD = CN[C@@H](CC(=O)O)C(=O)O; AllylGly = C=CC[C@H](N)C(=O)O; CH2CONHtBu = CC(C)(C)NC(=O)C*; NMeL = CN[C@@H](CC(C)C)C(=O)O; NMeNle = CCCC[C@H](NC)C(=O)O; NMeNva = CCC[C@H](NC)C(=O)O; NMeV = CN[C@H](C(=O)O)C(C)C; d(β3hA) = C[C@@H](N)CC(=O)O; NMeS = CN[C@@H](CO)C(=O)O; Morpholide = C1CN(*)CCO1; NMeA = CN[C@@H](C)C(=O)O; NMeAib = CNC(C)(C)C(=O)O; Piperidide = C1CCN(*)CC1; Pyrrolidide = C1CCN(*)C1; Ac5c = NC1(C(=O)O)CCCC1; Aze = O=C(O)[C@@H]1CCN1; Aib = CC(C)(N)C(=O)O; Isopentyl = CC(C)CC*; NEtG = CCNCC(=O)O; Sar = CNCC(=O)O

How the values were obtained:
[1] = target: protein-protein interaction between Kras and SOS1 (biotin-tagged human Kras loaded with GDP, His-tagged human SOS1) (Homo sapiens (Human), UniProt P01116, G12D); assay: Protein-protein interaction inhibition between Kras and SOS1 (KrasG12D-SOS PPI) using AlphaScreen; type: biochemical; conditions: AlphaScreen; biotin-tagged human Kras loaded with GDP, His-tagged human SOS1; read-out: KRAS G12D-SOS PPI IC50;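 further: kras produced in E. coli, Ni-coupled donor beads and streptavidin acceptor beads, excitation 680 nm with emission detected at 520–620 nm via singlet oxygen transfer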
[2] = test system: Human pancreatic cancer cell line AsPC-1 (G12D mutation Kras); assay: AsPC-1 cell growth inhibition (AsPC-1 CGI); type: cell-based; conditions: read-out: AsPC-1 cell growth inhibition, 50% growth inhibitory concentration (IC50 value); 96 hours, CellTiter-Glo, values classified in ranges

SMILES	pIC50 [1]	pIC50 [2]
CCCCC[C@H]1C(=O)N[C@@H]([C@@H](C)CC)C(=O)N(C)[C@@H](C)C(=O)N2CC[C@H]2C(=O)N(C)[C@@H](C2CCCC2)C(=O)N(C)CC(=O)N[C@@H](CCc2ccc(C(F)(F)F)c(Cl)c2)C(=O)N2CCC[C@H]2C(=O)NC2(CCCC2)C(=O)N(C)[C@@H](C2CCCC2)C(=O)N(C)[C@H](C(=O)N2CCOCC2)CC(=O)N1C [Compound 343] ([NMeAhp(2)]I[NMeA][Aze][NMeGly(cPent)][Sar][hPhe(3-Cl-4-CF3)]P[Ac5c][NMeGly(cPent)][NMeD]-Morpholide; lactam N-11)	9.06	≥ 7.70
CC[C@H](C)[C@@H]1NC(=O)[C@H](CC(C)C)N(C)C(=O)C[C@@H](C(=O)N2CCCCC2)N(C)C(=O)[C@H](C(C)C)N(C)C(=O)C2(CCCC2)NC(=O)[C@@H]2CCCN2C(=O)[C@H](CCc2ccc(C(F)(F)F)c(Cl)c2)NC(=O)CN(C)C(=O)[C@H](CO)N(C)C(=O)[C@@H]2CCN2C(=O)[C@H](C)N(C)C1=O [Compound 1721] ([NMeL]I[NMeA][Aze][NMeS][Sar][hPhe(3-Cl-4-CF3)]P[Ac5c][NMeV][NMeD]-Piperidide; lactam N-11)	7.66	< 6.30
CCO[C@@H]1C[C@H]2C(=O)NC3(CCCC3)C(=O)N(C)[C@@H](C3CCCC3)C(=O)N(C)[C@H](C(=O)N3CCCC3)CC(=O)N(C)[C@@H](CC(C)C)C(=O)N[C@@H]([C@@H](C)CC)C(=O)N(C)CC(=O)N(C)CC(=O)N(C)[C@@H](CC3CCCCC3)C(=O)N(C)CC(=O)N[C@@H](CCc3cc(F)c(C(F)(F)F)c(F)c3)C(=O)N2C1 [Compound 1162] ([NMeL]I[Sar][Sar][NMeCha][Sar][hPhe(3,5-F2-4-CF3)][Hyp](Et)[Ac5c][NMeGly(cPent)][NMeD]-Pyrrolidide; lactam N-11)	9.24	≥ 7.70
CCC[C@H]1C(=O)N[C@@H]([C@@H](C)CC)C(=O)N(C)CC(=O)N(C)CC(=O)N(C)[C@@H](Cc2ccc(C)cc2)C(=O)N(C)CC(=O)N[C@@H](CCc2ccc(C(F)(F)F)c(Cl)c2)C(=O)N2C[C@H](OCC)C[C@H]2C(=O)NC2(CCCC2)C(=O)N(C)[C@@H](C2CCCCC2)C(=O)N(C)[C@H](C(=O)N2CCCC2)CC(=O)N1C [Compound 1285] ([NMeNva]I[Sar][Sar][NMePhe(4-Me)][Sar][hPhe(3-Cl-4-CF3)][Hyp](Et)[Ac5c][NMeChg][NMeD]-Pyrrolidide; lactam N-11)	9.28	≥ 7.70
CC[C@H](C)[C@@H]1NC(=O)[C@H](C)N(C)C(=O)C[C@@H](C(=O)N2CCCCC2)N(C)C(=O)[C@H](C(C)C)N(C)C(=O)C2(CCCC2)NC(=O)[C@@H]2CCCN2C(=O)[C@H](CCc2ccc(C(F)(F)F)c(Cl)c2)NC(=O)CN(C)C(=O)[C@H](CC2CCCCC2)N(C)C(=O)[C@@H]2CCN2C(=O)[C@H](C)N(C)C1=O [Compound 1562] ([NMeA]I[NMeA][Aze][NMeCha][Sar][hPhe(3-Cl-4-CF3)]P[Ac5c][NMeV][NMeD]-Piperidide; lactam N-11)	8.32	< 6.30
CC[C@H](C)[C@@H]1NC(=O)[C@H](CC(C)C)N(C)C(=O)C[C@@H](C)N(C)C(=O)[C@H](CC(C)C)NC(=O)C(C)(C)N(C)C(=O)[C@H](Cc2ccccc2)NC(=O)[C@H](CCc2ccc(C(F)(F)F)c(F)c2)NC(=O)CN(C)C(=O)[C@H](Cc2ccc(Cl)cc2)N(C)C(=O)CN(C)C(=O)CN(C)C1=O [Compound 471] (cyclo(F[NMeAib]L[NMedβ3hAla][NMeL]I[Sar][Sar][NMePhe(4-Cl)][Sar][hPhe(3-F,4-CF3)]))	7.24	< 6.30
CC[C@H](C)[C@@H]1NC(=O)[C@H](C)N(C)C(=O)C[C@@H](C(=O)N2CCCCC2)N(C)C(=O)[C@H](C(C)C)N(C)C(=O)C2(CCCC2)NC(=O)[C@@H]2C[C@@H](N3CCC(F)(F)CC3)CN2C(=O)[C@H](CCc2ccc(C(F)(F)F)c(Cl)c2)NC(=O)CN(C)C(=O)[C@H](CC2CCCCC2)N(C)C(=O)CN(C)C(=O)CN(C)C1=O [Compound 914] ([NMeA]I[Sar][Sar][NMeCha][Sar][hPhe(3-Cl-4-CF3)][X19][Ac5c][NMeV][NMeD]-Piperidide; lactam N-11)	8.96	< 6.30
CC[C@H](C)[C@@H]1NC(=O)[C@H](CC(C)C)N(CC)C(=O)C[C@@H](C(=O)N2CCCC2)N(C)C(=O)[C@H]([C@@H](C)CC)N(C)C(=O)C2(CCCC2)NC(=O)[C@@H]2CCCN2C(=O)[C@H](CCc2ccc(C(F)(F)F)c(Cl)c2)NC(=O)CN(C)C(=O)[C@H](Cc2ccc(C(F)(F)F)cc2)N(C)C(=O)[C@@H]2CCN2C(=O)[C@H](C)N(C)C1=O [Compound 1190] ([NEtLeu]I[NMeA][Aze][NMePhe(4-CF3)][Sar][hPhe(3-Cl-4-CF3)]P[Ac5c][NMeI][NMeD]-Pyrrolidide; lactam N-11)	9.08	≥ 7.70
CC[C@H](C)[C@@H]1NC(=O)[C@H](COCC(=O)NC(C)(C)C)N(C)C(=O)C[C@@H](C)NC(=O)[C@H](CC(C)C)N(C)C(=O)C(C)(C)NC(=O)[C@H](CC(C)C)N(C)C(=O)[C@H](CCc2ccc(C(F)(F)F)c(Cl)c2)NC(=O)CN(C)C(=O)[C@H](COCCC(C)C)N(C)C(=O)CN(C)C(=O)CN(CC)C1=O [Compound 1495] (cyclo([Aib][NMeL][d(β3hA)][NMeS](CH2CONHtBu)I[NEtG][Sar][NMeS](Isopentyl)[Sar][hPhe(3-Cl-4-CF3)][NMeL]))	6.92	< 6.30
CC[C@H](C)[C@@H]1NC(=O)[C@H](CC(C)C)N(C)C(=O)C[C@@H](C(=O)N2CCCCC2)N(C)C(=O)[C@H](C(C)C)N(C)C(=O)C2(CCCC2)NC(=O)[C@@H]2CCCN2C(=O)[C@H](CCc2ccc(C(F)(F)F)c(Cl)c2)NC(=O)CN(C)C(=O)[C@H](C)N(C)C(=O)[C@@H]2CCN2C(=O)[C@H](C)N(C)C1=O [Compound 1674] ([NMeL]I[NMeA][Aze][NMeA][Sar][hPhe(3-Cl-4-CF3)]P[Ac5c][NMeV][NMeD]-Piperidide; lactam N-11)	7.24	< 6.30
CC[C@H](C)[C@@H]1NC(=O)[C@H](CC(C)C)N(C)C(=O)C[C@@H](C)NC(=O)[C@H](C2CCCCC2)N(C)C(=O)C2(CCCC2)NC(=O)[C@@H]2CCCN2C(=O)[C@H](CCc2ccc(C(F)(F)F)c(Cl)c2)NC(=O)CN(C)C(=O)[C@H](CC2CCCCC2)N(C)C(=O)[C@@H]2CCN2C(=O)[C@H](C)N(C)C1=O [Compound 1706] (cyclo([Ac5c][NMeChg][d(β3hA)][NMeL]I[NMeA][Aze][NMeCha][Sar][hPhe(3-Cl-4-CF3)]P))	6.85	< 6.30
CC[C@H](C)[C@@H]1NC(=O)[C@H](CC(C)C)N(C)C(=O)C[C@@H](C(=O)N(C)C)N(C)C(=O)[C@H](C2CCCC2)N(C)C(=O)C2(CCCC2)NC(=O)[C@@H]2CCCN2C(=O)[C@H](CCc2cc(F)c(C(F)(F)F)c(F)c2)NC(=O)CN(C)C(=O)[C@H](CC2CCCCC2)N(C)C(=O)[C@@H]2CCN2C(=O)[C@H](C)N(C)C1=O [Compound 1170] ([NMeL]I[NMeA][Aze][NMeCha][Sar][hPhe(3,5-F2-4-CF3)]P[Ac5c][NMeGly(cPent)][NMeD]-NMe2; lactam N-11)	9.27	≥ 7.70
CC[C@H](C)[C@@H]1NC(=O)[C@H](CC(C)C)N(C)C(=O)C[C@@H](C(=O)N2CCCCC2)N(C)C(=O)[C@H](C2CCCC2)N(C)C(=O)C2(CCCC2)NC(=O)[C@@H]2CCCN2C(=O)[C@H](CCc2ccc(C(F)F)nc2)NC(=O)CN(C)C(=O)[C@H](CC2CCCCC2)N(C)C(=O)[C@@H]2CCN2C(=O)[C@H](C)N(C)C1=O [Compound 2060] ([NMeL]I[NMeA][Aze][NMeCha][Sar][X22]P[Ac5c][NMeGly(cPent)][NMeD]-Piperidide; lactam N-11 (inferred); C-terminus assumed)	6.96	< 6.30
CC[C@H](C)[C@@H]1NC(=O)[C@H](CC(C)C)N(C)C(=O)C[C@@H](C(=O)N2CCCCC2)N(C)C(=O)[C@H](C2CCCC2)N(C)C(=O)C2(CCCC2)NC(=O)[C@@H]2CCCN2C(=O)[C@H](CCc2ccc(C(F)(F)F)c(Cl)c2)NC(=O)CN(C)C(=O)[C@H](Cc2ccc(C)cc2)N(C)C(=O)[C@@H]2CCN2C(=O)[C@H](C)N(C)C1=O [Compound 1772] ([NMeL]I[NMeA][Aze][NMePhe(4-Me)][Sar][hPhe(3-Cl-4-CF3)]P[Ac5c][NMeGly(cPent)][NMeD]-Piperidide; lactam N-11)	9.12	≥ 7.70
CCCC[C@H]1C(=O)NC2(CCCC2)C(=O)N(C)[C@@H](C2CCCCC2)C(=O)N(C)[C@H](C(=O)N2CCCCC2)CC(=O)N(C)[C@@H](CC(C)C)C(=O)N[C@@H]([C@@H](C)CC)C(=O)N(C)CC(=O)N(C)CC(=O)N(C)[C@@H](CC2CCCCC2)C(=O)N(C)CC(=O)N[C@@H](CCc2ccc(C(F)(F)F)c(Cl)c2)C(=O)N1C [Compound 730] ([NMeL]I[Sar][Sar][NMeCha][Sar][hPhe(3-Cl-4-CF3)][NMeNle][Ac5c][NMeChg][NMeD]-Piperidide; lactam N-11)	7.92	< 6.30
C=CC[C@@H]1NC(=O)[C@H](CC(C)C)N(C)C(=O)C[C@@H](C(=O)N2CCCCC2)N(C)C(=O)[C@H](C(C)C)N(C)C(=O)C2(CCCC2)NC(=O)[C@@H]2CCCN2C(=O)[C@H](CCc2ccc(C(F)(F)F)c(Cl)c2)NC(=O)CN(C)C(=O)[C@H](CC2CCCCC2)N(C)C(=O)[C@@H]2CCN2C(=O)[C@H](C)N(C)C1=O [Compound 745] ([NMeL][AllylGly][NMeA][Aze][NMeCha][Sar][hPhe(3-Cl-4-CF3)]P[Ac5c][NMeV][NMeD]-Piperidide; lactam N-11)	7.54	< 6.30
